# According to patent publication US11337969B2, “Methods for treating cancer” (X4 Pharmaceuticals, Inc., priority 2016, dated 2022):
# How the values were obtained:
# [1] = test system: melanoma, renal cell carcinoma, and ovarian cancer; settings: including decreased metastasis and increased overall survival; cited from earlier work
# [2] = subcutaneous injection; cited from earlier work
# [3] = Solubility of X4P-001 as a function of pH; type: physicochemical
# in vivo = assay: in vivo
# Description: In certain embodiments, the dosage composition may be provided twice a day in divided dosage, approximately 12 hours apart. In other embodiments, the dosage composition may be provided once daily. […] Dosage for oral administration may be from about 100 mg to about 1200 mg once or twice per day.
# [4] = oral administration, healthy volunteers and HIV patients; cited from earlier work
# [5] = test system: advanced clear-cell renal-cell carcinoma; settings: cited from earlier work; for objective response rate: patients after one or two antiangiogenic regimens, nivolumab 3 mg/kg iv every two weeks or everolimus 10 mg orally daily, P<0.001
# [6] = nivolumab compared to everolimus
molecule,measurement,setting,value
"c1cc(CN2CCCNCCNCCCNCC2)ccc1CN1CCCNCCNCCCNCC1 [Plerixafor, reference compound]",anti-tumor activity,[1],significant anti-tumor activity
same,half life,[2],very short
NCCCCN(Cc1nc2ccccc2[nH]1)[C@H]1CCCc2cccnc21 [X4P-001],solubility,"[3]; aqueous buffer, pH range 3.0 to 8.0 (freely soluble)",> 100 mg/mL
same,Solubility in water,[3]; water,only slightly soluble
same,terminal half-life,in vivo,approximately 14.5 hrs
same,half-life,in vivo; terminal half-life,12 to 24 h
same,pharmacodynamic activity: circulating white blood cells (WBCs),[4],dose- and concentration-related changes
same,volume of distribution (VL),[4],high
same,anti-tumor activity,[1],significant anti-tumor activity
CO[C@H]1C[C@@H]2CC[C@@H](C)[C@@](O)(O2)C(=O)C(=O)N2CCCC[C@H]2C(=O)O[C@H]([C@H](C)C[C@@H]2CC[C@@H](OCCO)[C@H](OC)C2)CC(=O)[C@H](C)/C=C(\C)[C@@H](O)[C@@H](OC)C(=O)[C@H](C)C[C@H](C)/C=C/C=C/C=C/1C [everolimus],objective response rate,[5],5%
nivolumab: human IgG4 anti-PD-1 monoclonal antibody,incidence of Grade 3 or 4 treatment-related adverse events,[5]; [6],lower incidence
same,median overall survival,[5]; [6],longer
same,objective response rate,[5],25%
